Tests used:
[1] = molecular target: T1, human ACSS2 protein (Homo sapiens, UniProt Q9NR19); assay: ACSS2 cell-free activity assay (pyrophosphatase-coupled, Biomol green); details: 10 nM human ACSS2, 90 minutes at 37 C, absorbance at 620 nm; read-out: ACSS2 Biochemical IC50
T1 construct: purchased OriGene Technologies, Inc
Summary of the method: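 10 nM human ACSS2 incubated 90 min at 37 C with compound, 300 μM ATP, 10 μM CoA, 5 mM NaAc in pH 7.5 Hepes buffer with 0.5 U/ml pyrophosphatase. Released phosphate detected with Biomol Green at 620 nm; IC50 by non-linear regression constrained to 0% and 100%.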

[2] = molecular target: T2, human ACSS1 protein (Homo sapiens, UniProt Q9NUB1); assay: ACSS1 cell-free activity assay (pyrophosphatase-coupled, Biomol green); format: biochemical; details: 5 nM human ACSS1, 30 minutes at room temperature, absorbance at 620 nm; for IC50: read-out: ACSS1 Biochemical IC50
T2 construct: purchased MyBioSource
T2 sequence (Q9NUB1 38-689): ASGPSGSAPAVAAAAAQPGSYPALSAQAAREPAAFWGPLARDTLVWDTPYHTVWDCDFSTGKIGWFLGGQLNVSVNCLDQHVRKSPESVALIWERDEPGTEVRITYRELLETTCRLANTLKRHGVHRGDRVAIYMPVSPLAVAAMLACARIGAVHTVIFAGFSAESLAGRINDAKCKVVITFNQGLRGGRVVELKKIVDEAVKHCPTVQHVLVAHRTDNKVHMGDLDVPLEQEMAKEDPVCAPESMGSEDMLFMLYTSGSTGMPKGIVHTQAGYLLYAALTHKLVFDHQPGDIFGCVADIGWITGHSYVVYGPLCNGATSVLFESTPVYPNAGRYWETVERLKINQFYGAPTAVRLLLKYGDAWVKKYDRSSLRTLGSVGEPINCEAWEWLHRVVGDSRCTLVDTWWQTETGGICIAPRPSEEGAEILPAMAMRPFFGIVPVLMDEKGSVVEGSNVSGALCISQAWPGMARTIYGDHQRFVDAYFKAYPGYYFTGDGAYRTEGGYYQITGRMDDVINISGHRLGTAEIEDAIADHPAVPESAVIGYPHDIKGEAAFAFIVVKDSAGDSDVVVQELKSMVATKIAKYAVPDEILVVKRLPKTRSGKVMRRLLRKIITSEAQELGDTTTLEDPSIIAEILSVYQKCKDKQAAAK
Summary of the method: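 5 nM human ACSS1 incubated 30 min at RT with compound in pH 7.5 Hepes buffer with 15 μM CoA, 5 mM acetate, 300 μM ATP, 2 mM MgCl2 and pyrophosphatase. Released phosphate detected with Biomol Green (30 min), absorbance 620 nm. IC50 from constrained non-linear regression.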

[3] = molecular target: T3, ACSS2 in MDA-MB-468 cells (Homo sapiens, UniProt Q9NR19); assay: Cellular fatty-acid IC50: 13C-acetate incorporation into fatty acids (palmitate), LC-MS; format: cell-based; details: hypoxic conditions (1% O2), 75% charcoal stripped serum, 5 hours, 13C-acetate into palmitate, read-out: Cellular Fatty-acid IC50 High Serum MDA468
T3 construct: endogenous in cells; host or cells: MDA-MB-468 cells, hypoxia (1% O2)
T3 sequence (Q9NR19 whole entry): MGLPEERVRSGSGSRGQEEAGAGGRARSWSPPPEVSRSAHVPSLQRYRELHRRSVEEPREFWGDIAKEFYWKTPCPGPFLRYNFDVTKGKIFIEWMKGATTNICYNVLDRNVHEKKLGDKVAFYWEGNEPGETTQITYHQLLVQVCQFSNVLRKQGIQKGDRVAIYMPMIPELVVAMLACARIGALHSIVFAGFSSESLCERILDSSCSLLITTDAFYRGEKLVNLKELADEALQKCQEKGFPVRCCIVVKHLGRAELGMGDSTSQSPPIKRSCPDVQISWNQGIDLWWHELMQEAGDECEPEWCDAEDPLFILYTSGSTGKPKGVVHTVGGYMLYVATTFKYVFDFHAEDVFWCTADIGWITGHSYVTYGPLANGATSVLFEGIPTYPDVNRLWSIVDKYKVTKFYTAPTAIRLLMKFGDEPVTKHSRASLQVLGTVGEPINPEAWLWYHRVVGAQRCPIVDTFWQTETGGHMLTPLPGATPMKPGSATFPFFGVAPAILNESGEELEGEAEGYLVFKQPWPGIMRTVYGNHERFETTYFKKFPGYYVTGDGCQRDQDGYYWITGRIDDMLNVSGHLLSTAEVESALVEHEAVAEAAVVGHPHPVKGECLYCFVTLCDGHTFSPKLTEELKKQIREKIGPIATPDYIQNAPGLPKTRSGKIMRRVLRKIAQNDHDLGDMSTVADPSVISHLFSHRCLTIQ
Protocol: Cellular Fatty-Acid IC50 Determination:
The cellular activity of ACSS2 was measured in MDA-MB-468 cells under hypoxic conditions by tracing the incorporation of labelled carbons from ^13C-acetate into newly synthesized fatty acids. The assay was performed using 75% charcoal stripped serum (high serum conditions).
MDA-MB-468 cells were seeded in 12-well plates (0.35×10^6 cells per well) in plating medium (Dulbecco's Modified Eagle Medium containing 25 mM D-glucose, 1 mM sodium pyruvate, 10% v/v fetal bovine serum, and 2 mM glutamine) and incubated for 24 hours under hypoxic conditions (1% O2).
The next day, tracing medium containing DMEM (01-057-1A) containing 75% charcoal stripped serum (Biological industries 04-201-1A), 3.5 μg/mL Biotin (Sigma-Aldrich B4639), 1 mM Pyruvate, 5.5 mM Glucose, 0.65 mM Glutamine and 0.5 mM ^13C-Acetate (Sigma-Aldrich #282014) with serial dilutions of the compounds in the range of 0.000512-1000 nM were prepared. The plating medium was replaced with 1 mL tracing medium plus compounds and the cells were incubated for 5 hours under hypoxic conditions (1% O2). Plating medium in control wells (without cells or without compounds) was replaced with 1 mL tracing medium containing 0.01% v/v DMSO.
The level of ^13C-acetate incorporation into fatty acids (palmitate) was measured by LC-MS analysis and IC50 as described below:
Sample Preparation for LC-MS
• a) Cells were washed twice with cold phosphate buffered saline (PBS), scraped into 0.5 mL EDTA pH 8.0, and transferred into 1.1 mL V-shaped HPLC glass tubes. • b) The cell suspensions were centrifuged for 5 minutes at 400×g, 4° C. and the supernatants were removed. • c) Cell pellets were frozen at −80° C.
• d) Cell pellets were resuspended in 0.2 mL of 80% v/v ethanol in water containing 0.02 M NaOH in 1.1 ml glass (v-bottom) HPLC vials. • e) The vials were closed tight and incubated at 66° C. for 60 minutes. • f) Acetonitrile containing 2% v/v formic acid (150 μL) was added to each vial and the mixtures were transferred to Eppendorf tubes for centrifugation at 17 000×g for 20 minutes. • g) Supernatants were transferred to LC-MS vials.
The relative palmitate concentration was measured by LC-MS in reconstructed selected ion monitoring (RSIM) mode and negative ion mode. Samples were analyzed on a Phenomenex Kinetex 2.6 μm XB-C18 150×2.1 mm column at 45° C. (0.4 mL/minute flow rate) using: • a) A gradient from 15% A/85% C to 100% C for 0 to 2 minutes (A: water containing 5% v/v acetonitrile, 10 mM ammonium acetate, and 10 mM acetic acid; C: a mixture of 50% v/v acetonitrile and 50% v/v methanol). • b) Isocratic flow (100% C) for 2 to 5 minutes. • c) Equilibration in isocratic conditions (15% A/85% C) for 5 to 8 minutes.
Palmitate was eluted at approximately 3.4 minutes.
The percent inhibition was calculated relative to the sample without compound and after background deduction. IC50 values were calculated using non-linear regression curve fit analysis with 0% and 100% constraints (CDD Vault, Collaborative Drug Discovery, Inc. or GraphPad Prism).
The inhibitory activities of each compound against ACSS2 in MDA-MB-468 cells under high serum conditions, as determined by ^13C-acetate incorporation into fatty acids (palmitate), are presented in Table 2.

T1 sequence (Q9NR19 whole entry): as above

IC50 [1]	ACSS1 Biochemical IC50 (nM) [2]	IC50 [3]	IC50 [2]	SMILES
< 1 nM	Inactive	< 20 nM	–	COc1ccc(-c2[nH]c(C)c(C(=O)Nc3cccc(C(F)(F)C4CC4)c3)[n+]2[O-])cc1-c1c(C)cncc1C [Compound 105, 4-((3-(cyclopropyldifluoromethyl)phenyl)carbamoyl)-2-(3-(3,5-dimethylpyridin-4-yl)-4-methoxyphenyl)-5-methyl-1H-imidazole 3-oxide]
< 1 nM	Inactive	> 50 nM	–	CCC(F)(F)c1cccc(NC(=O)c2c(C)[nH]c(-c3cc(C)cc(-c4c(C)cccc4C)c3)[n+]2[O-])c1 [Compound 106, 4-((3-(1,1-difluoropropyl)phenyl)carbamoyl)-5-methyl-2-(2′,5,6′-trimethyl-[1,1′-biphenyl]-3-yl)-1H-imidazole 3-oxide]
< 1 nM	Inactive	< 20 nM	–	CCC(F)(F)c1cccc(NC(=O)c2c(C)[nH]c(-c3cccc(-c4c(C)cccc4C)c3)[n+]2[O-])c1 [Compound 107, 4-((3-(1,1-difluoropropyl)phenyl)carbamoyl)-2-(2′,6′-dimethyl-[1,1′-biphenyl]-3-yl)-5-methyl-1H-imidazole 3-oxide]
< 1 nM	Inactive	20 to 50 nM	–	CCC(F)(F)c1cccc(NC(=O)c2c(C)[nH]c(-c3ccc(Cl)c(-c4c(C)cccc4C)c3)[n+]2[O-])c1 [Compound 108, 2-(6-chloro-2′,6′-dimethyl-[1,1′-biphenyl]-3-yl)-4-((3-(1,1-difluoropropyl)phenyl)carbamoyl)-5-methyl-1H-imidazole 3-oxide]
< 1 nM	Inactive	< 20 nM	–	CCC(F)(F)c1cccc(NC(=O)c2c(C)[nH]c(-c3cccc(-c4ncncc4C)c3)[n+]2[O-])c1 [Compound 109, 4-((3-(1,1-difluoropropyl)phenyl)carbamoyl)-5-methyl-2-(3-(5-methylpyrimidin-4-yl)phenyl)-1H-imidazole 3-oxide]
< 1 nM	–	< 20 nM	> 30 nM	CCC(F)(F)c1cccc(NC(=O)c2c(C)[nH]c(-c3cccc(-c4nccnc4C)c3)[n+]2[O-])c1 [Compound 110, 4-((3-(1,1-difluoropropyl)phenyl)carbamoyl)-5-methyl-2-(3-(3-methylpyrazin-2-yl)phenyl)-1H-imidazole 3-oxide]
< 1 nM	Inactive	> 50 nM	–	CCC(F)(F)c1cccc(NC(=O)c2c(C)[nH]c(-c3cccc(-c4c(C)cccc4C)n3)[n+]2[O-])c1 [Compound 111, 4-((3-(1,1-difluoropropyl)phenyl)carbamoyl)-2-(6-(2,6-dimethylphenyl)pyridin-2-yl)-5-methyl-1H-imidazole 3-oxide]
< 1 nM	–	< 20 nM	> 30 nM	CCC(F)(F)c1cccc(NC(=O)c2c(C)[nH]c(-c3cccc(-c4c(C)ncnc4C)c3)[n+]2[O-])c1 [Compound 112, 4-((3-(1,1-difluoropropyl)phenyl)carbamoyl)-2-(3-(4,6-dimethylpyrimidin-5-yl)phenyl)-5-methyl-1H-imidazole 3-oxide]
< 1 nM	Inactive	20 to 50 nM	–	Cc1cccc(C)c1-c1cc(-c2[nH]c(C)c(C(=O)Nc3cccc(C(F)(F)C4CC4)c3)[n+]2[O-])ccc1OC(F)F [Compound 113, N-[3-[cyclopropyl(difluoro)methyl]phenyl]-2-[4-(difluoromethoxy)-3-(2,6-dimethylphenyl)phenyl]-5-methyl-3-oxido-1H-imidazol-3-ium-4-carboxamide]
< 1 nM	–	< 20 nM	> 30 nM	CCC(F)(F)c1cccc(NC(=O)c2c(C)[nH]c(-c3ccc(C#N)c(-c4c(C)cccc4C)c3)[n+]2[O-])c1 [Compound 114, 2-(6-cyano-2′,6′-dimethyl-[1,1′-biphenyl]-3-yl)-4-((3-(1,1-difluoropropyl)phenyl)carbamoyl)-5-methyl-1H-imidazole 3-oxide]
< 1 nM	Inactive	< 20 nM	–	Cc1cncc(C)c1-c1cc(-c2[nH]c(C)c(C(=O)Nc3cccc(C(F)(F)C4CC4)c3)[n+]2[O-])ccc1OC(F)F [Compound 115, 4-((3-(cyclopropyldifluoromethyl)phenyl)carbamoyl)-2-(4-(difluoromethoxy)-3-(3,5-dimethylpyridin-4-yl)phenyl)-5-methyl-1H-imidazole 3-oxide]
< 1 nM	Inactive	< 20 nM	–	CCC(F)(F)c1cccc(NC(=O)c2c(C)[nH]c(-c3cccc(-c4c(C)cnnc4C)c3)[n+]2[O-])c1 [Compound 116, 4-((3-(1,1-difluoropropyl)phenyl)carbamoyl)-2-(3-(3,5-dimethylpyridazin-4-yl)phenyl)-5-methyl-1H-imidazole 3-oxide]
< 1 nM	Inactive	< 20 nM	–	COc1ccc(-c2[nH]c(C)c(C(=O)Nc3cccc(C(=O)N(C)C)c3)[n+]2[O-])cc1-c1c(C)cccc1C [Compound 119, 4-((3-(dimethylcarbamoyl)phenyl)carbamoyl)-2-(6-methoxy-2′,6′-dimethyl-[1,1′-biphenyl]-3-yl)-5-methyl-1H-imidazole 3-oxide]
< 1 nM	Inactive	< 20 nM	–	COc1ccc(-c2[nH]c(C)c(C(=O)Nc3cccc(C(C)(F)F)c3)[n+]2[O-])cc1-c1c(C)cccc1C [Compound 120, 4-((3-(1,1-difluoroethyl)phenyl)carbamoyl)-2-(6-methoxy-2′,6′-dimethyl-[1,1′-biphenyl]-3-yl)-5-methyl-1H-imidazole 3-oxide]

From patent US20230174507A1, “IMIDAZOLE 3-OXIDE DERIVATIVE BASED ACSS2 INHIBITORS AND METHODS OF USE THEREOF” (METABOMED LTD., priority 2020, published 2023)
